Data as given in the supplement of paper PMC10307832.

Key:
Assay in all cases: relative viability (nuclei count vs DMSO), 5 days (fraction); higher = more cells survive
[1] = compound: C[As](C)SC[C@H](NC(=O)CC[C@H](N)C(=O)O)C(=O)NCC(=O)O [Darinaparsin] + N=C(N)NC(=N)NCCc1ccccc1 [Phenformin] (partner 250 µM)
How it was run: (§1)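 Cells from lung cancer lines were seeded into 1536-well plates and, one day later, dosed by pin tool. Treatments were either a single drug or a fixed dose of an anchor drug with five library-drug doses (not always all listed) in √10 steps. After 5 days, nuclei were stained in a one-step fixation (final 0.05% Triton X-100, 1% formaldehyde, 1 ug/ml Hoechst) and counted on 4× images, and relative viability is the treated-to-vehicle nuclei ratio, as the median of duplicate plates.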

AZ628 + Linsitinib = compound: CC1=C(C=C(C=C1)NC(=O)C2=CC(=CC=C2)C(C)(C)C#N)NC3=CC4=C(C=C3)N=CN(C4=O)C [AZ628] + C[C@]1(O)C[C@@H](c2nc(-c3ccc4ccc(-c5ccccc5)nc4c3)c3c(N)nccn32)C1 [Linsitinib] (partner 1 µM)
How it was run: as §1

QS11 + Tozasertib = compound: C1CC2=C(C1)C=C(C=C2)OC3=NC(=C4C(=N3)N(C=N4)CC5=CC=C(C=C5)C6=CC=CC=C6)N[C@@H](CC7=CC=CC=C7)CO [QS11] + Cc1cc(Nc2cc(N3CCN(C)CC3)nc(Sc3ccc(NC(=O)C4CC4)cc3)n2)n[nH]1 [Tozasertib] (partner 0.1 µM)
How it was run: as §1

QS11 + Vorinostat = compound: C1CC2=C(C1)C=C(C=C2)OC3=NC(=C4C(=N3)N(C=N4)CC5=CC=C(C=C5)C6=CC=CC=C6)N[C@@H](CC7=CC=CC=C7)CO [QS11] + O=C(CCCCCCC(=O)Nc1ccccc1)NO [Vorinostat] (partner 1 µM)
How it was run: as §1

| Cell Line | relative viability ([1]; first compound 0.08 µM) | relative viability ([1]; first compound 0.8 µM) | relative viability ([1]; first compound 2.53 µM) | relative viability ([1]; first compound 8 µM) | relative viability (AZ628 + Linsitinib; first compound 0.08 µM) | relative viability (AZ628 + Linsitinib; first compound 0.253 µM) | relative viability (AZ628 + Linsitinib; first compound 0.8 µM) | relative viability (AZ628 + Linsitinib; first compound 2.53 µM) | relative viability (AZ628 + Linsitinib; first compound 8 µM) | relative viability (QS11 + Tozasertib; first compound 0.08 µM) | relative viability (QS11 + Tozasertib; first compound 0.253 µM) | relative viability (QS11 + Tozasertib; first compound 0.8 µM) | relative viability (QS11 + Tozasertib; first compound 2.53 µM) | relative viability (QS11 + Tozasertib; first compound 8 µM) | relative viability (QS11 + Vorinostat; first compound 0.08 µM) | relative viability (QS11 + Vorinostat; first compound 0.253 µM) | relative viability (QS11 + Vorinostat; first compound 0.8 µM) | relative viability (QS11 + Vorinostat; first compound 2.53 µM) | relative viability (QS11 + Vorinostat; first compound 8 µM) |
| --- | --- | --- | --- | --- | --- | --- | --- | --- | --- | --- | --- | --- | --- | --- | --- | --- | --- | --- | --- |
| NCI-H650 | 0.476 | 0.479 | 0.428 | 0.484 | 1.09 | 0.911 | 1.25 | 0.952 | 0.78 | 0.65 | 0.759 | 0.728 | 0.641 | 0.536 | 0.496 | 0.414 | 0.333 | 0.416 | 0.45 |
| PC-3 [JPC-3] | 0.534 | 0.481 | 0.436 | 0.467 | 0.893 | 0.971 | 1.01 | 1.04 | 0.952 | 0.881 | 0.939 | 0.857 | 0.972 | 0.764 | – | 0.722 | 0.709 | 0.72 | 0.697 |
| NCI-H1395 | 0.457 | 0.471 | 0.409 | 0.459 | 1.21 | 1.18 | 1.23 | 1.07 | 1.05 | 0.728 | 0.697 | 0.748 | 0.686 | 0.72 | 0.649 | 0.752 | 0.772 | 0.814 | 0.823 |
| CAL-12T | 0.657 | 0.534 | 0.478 | 0.605 | 0.788 | 0.677 | 0.585 | 0.679 | 0.357 | 0.247 | 0.268 | 0.299 | 0.204 | 0.227 | 0.867 | 0.915 | 0.713 | 0.983 | 0.704 |
| NCI-H1944 | 0.217 | 0.207 | 0.216 | 0.192 | 1.21 | 1.14 | 0.987 | 0.876 | 0.703 | 0.258 | 0.274 | – | 0.271 | 0.24 | 0.485 | 0.491 | – | 0.424 | 0.505 |
| NCI-H322M | 0.886 | 0.795 | 0.663 | 0.795 | 1.05 | 0.939 | 1.01 | 0.854 | 0.662 | 0.479 | 0.479 | 0.45 | 0.545 | 0.64 | 0.858 | 0.997 | 1.05 | 1.16 | 1.41 |
| LCLC-103H | 0.36 | 0.365 | 0.318 | 0.349 | 1.02 | 1.15 | 1.15 | 1.07 | 1.04 | 0.389 | 0.496 | 0.358 | 0.477 | 0.43 | 0.724 | 0.783 | – | 0.799 | 0.734 |
| SK-MES-1 | 0.783 | 0.592 | 0.594 | 0.667 | 0.98 | 1.06 | 0.939 | 1.03 | 0.637 | 1.04 | 0.906 | 0.833 | 0.905 | 0.745 | 1.25 | 1.01 | 0.987 | 1.23 | 1.08 |
| A-427 | 0.348 | 0.316 | 0.298 | 0.36 | 1 | 0.898 | 0.839 | 0.857 | 0.496 | 0.21 | 0.207 | – | 0.209 | 0.201 | 0.902 | 0.844 | – | 0.877 | 0.844 |
| NCI-H1355 | 0.45 | 0.459 | 0.382 | 0.412 | 0.846 | 0.93 | 0.765 | 0.806 | 0.655 | 0.569 | 0.564 | 0.425 | 0.452 | 0.413 | 0.732 | 0.62 | 0.529 | 0.597 | 0.554 |
| NCI-H1793 | 0.358 | 0.435 | 0.327 | 0.422 | 1.32 | 1.11 | 1.09 | 0.687 | 0.602 | 0.305 | 0.328 | 0.257 | 0.32 | 0.338 | 0.734 | 0.528 | 0.808 | 0.88 | 0.702 |
| NCI-H2023 | 0.529 | 0.417 | 0.368 | 0.501 | 0.723 | 0.677 | 0.72 | 0.758 | 0.358 | 0.381 | 0.38 | 0.276 | 0.222 | 0.219 | 0.417 | 0.655 | 0.527 | 0.759 | 0.318 |
| NCI-H520 | 0.669 | 0.481 | 0.453 | 0.625 | 1.08 | 1.03 | 0.872 | 1.01 | 0.62 | 0.465 | 0.454 | 0.503 | 0.418 | 0.407 | 0.758 | 0.758 | 0.639 | 0.804 | 0.88 |
| NCI-H2087 | 0.553 | 0.451 | 0.467 | 0.608 | 0.818 | 0.613 | 0.728 | 0.65 | 0.343 | 0.245 | 0.225 | – | 0.243 | 0.265 | 1.03 | 0.667 | 0.599 | 0.625 | 0.665 |
| NCI-H596 | 0.891 | 0.737 | 0.677 | 0.745 | 1.03 | 1.12 | 0.982 | 1.1 | 1.22 | 0.875 | 0.879 | 0.923 | 0.93 | 1.13 | 0.52 | 0.51 | 0.501 | 0.623 | 0.593 |
